Counter-ions that a name gives are not always drawn.
What was measured:
[1] = tested on: vancomycin-resistant Enterococcus faecium (VRE); experiment: Inhibition of VRE (E. faecium) biofilm formation (crystal violet); assay type: cell-based
Method: (§1) A dose-response study was then initiated in which both the IC50 and EC50 value of each compound towards the bacterial strains were determined (Table 1). Here, IC50 is defined as the concentration of compound that inhibits 50% biofilm development while EC50 is defined as the concentration of compound that disperses 50% of a pre-formed biofilm.
Procedure to Determine the Inhibitory Effect of Test Compounds on E. faecium, MRSA, S. epidermidis, PAO1 and MDRAB Biofilm Formation:
(§2) Inhibition assays were performed by taking an overnight culture of bacterial strain and subculturing it at an OD600 of 0.01 into the necessary media (brain heart infusion for E. faecium, tryptic soy broth with a 0.5% glucose supplement (TSBG) for MRSA, Luria-Bertani (LB) media for MDRAB, Luria-Bertani media without NaCl (LBNS) for PAO1 and tryptic soy broth with a 0.5% glucose supplement and a 3.0% NaCl supplement (TGN) for S. epidermidis. Stock solutions of predetermined concentrations of the test compound were then made in the necessary media. These stock solutions were aliquoted (100 μL) into the wells of the 96-well PVC microtiter plate. Sample plates were then wrapped in GLAD Press n′ Seal® followed by an incubation under stationary conditions for 24 h at 37° C. After incubation, the media was discarded from the wells and the plates were washed thoroughly with water. Plates were then stained with 100 μL of 0.1% solution of crystal violet (CV) and then incubated at ambient temperature for 30 min. Plates were washed with water again and the remaining stain was solubilized with 200 μL of 95% ethanol. A sample of 125 μL of solubilized CV stain from each well was transferred to the corresponding wells of a polystyrene microtiter dish. Biofilm inhibition was quantitated by measuring the OD540 of each well in which a negative control lane wherein no biofilm was formed served as a background and was subtracted out.
as §2, with “2-(2-amino-1H-benzo[d]imidazol-6-ylcarbamoyl)-3,4,5,6-tetrachlorobenzoic acid hydrochloride” for “test compound”, “media. Samples were then doped with 10.0 μM FeSO4 with samples with no test compound to examine effects of 10.0 μM FeSO4 on biofilm formation.” for “media.”

[2] = tested on: MRSA; experiment: Dispersion of preformed MRSA biofilm; assay type: cell-based, Staphylococcus aureus; conditions: concentration that disperses 50% of a pre-formed biofilm
Method: as §1
(§3) Procedure to Determine the Dispersal Effect of Test Compounds on E. faecium, MRSA and S. epidermidis Preformed Biofilms:
(§4) Dispersion assays were performed by taking an overnight culture of bacterial strain and subculturing it at an OD600 of 0.01 into the necessary media (brain heart infusion for E. faecium, tryptic soy broth with a 0.5% glucose supplement (TSBG) for MRSA and tryptic soy broth with a 0.5% glucose supplement and a 3.0% NaCl supplement (TGN) for S. epidermidis. The resulting bacterial suspension was aliquoted (100 μL) into the wells of a 96-well PVC microtiter plate. Plates were then wrapped in GLAD Press n′ Seal® followed by an incubation under stationary conditions at ambient temperature to establish the biofilms. After 24 h, the media was discarded from the wells and the plates were washed thoroughly with water. Stock solutions of predetermined concentrations of the test compound were then made in the necessary media. These stock solutions were aliquoted (100 μL) into the wells of the 96-well PVC microtiter plate with the established biofilms. Media alone was added to a subset of the wells to serve as a control. Sample Plates were then incubated for 24 h at 37° C. After incubation, the media was discarded from the wells and the plates were washed thoroughly with water. Plates were then stained with 100 μL of 0.1% solution of crystal violet (CV) and then incubated at ambient temperature for 30 min. Plates were washed with water again and the remaining stain was solubilized with 200 μL of 95% ethanol. A sample of 125 μL of solubilized CV stain from each well was transferred to the corresponding wells of a polystyrene microtiter dish. Biofilm dispersion was quantitated by measuring the OD540 of each well in which a negative control lane wherein no biofilm was formed served as a background and was subtracted out.

[3] = tested on: vancomycin-resistant Enterococcus faecium (VRE); experiment: Dispersion of preformed VRE (E. faecium) biofilm; assay type: cell-based; conditions: concentration that disperses 50% of a pre-formed biofilm
Method: as §1, §3, §4

[4] = tested on: S. epidermidis; experiment: Dispersion of preformed S. epidermidis biofilm; assay type: cell-based, Staphylococcus epidermidis; conditions: concentration that disperses 50% of a pre-formed biofilm
Method: as §1, §3, §4

[5] = tested on: E. faecium, MRSA and S. epidermidis; experiment: Mitigating effects of iron on biofilm formation inhibition; assay type: cell-based; conditions: increasing Fe(II) concentration, 10.0 μM FeSO4, hydrochloride
Method: Next the mechanistic basis of how compound 3 was able to inhibit and disperse bacterial biofilms was investigated. Iron levels are known to effect Gram-positive biofilm development (Deighton, M.; Borland, R. Infection and Immunity 1993, 61, 4473-4479) and were deemed a plausible driver of the observed anti-biofilm activity. To examine Fe(II) related antibiofilm behavior, a dose-dependent study was performed in which the ability of 3 to inhibit biofilm development was measured under increasing Fe(II) concentration. […]
Inhibition assays were performed by taking an overnight culture of bacterial strain and subculturing it at an OD600 of 0.01 into the necessary media (brain heart infusion for E. faecium, tryptic soy broth with a 0.5% glucose supplement (TSBG) for MRSA, Luria-Bertani (LB) media for MDRAB, Luria-Bertani media without NaCl (LBNS) for PAO1 and tryptic soy broth with a 0.5% glucose supplement and a 3.0% NaCl supplement (TGN) for S. epidermidis. Stock solutions of predetermined concentrations of the 2-(2-amino-1H-benzo[d]imidazol-6-ylcarbamoyl)-3,4,5,6-tetrachlorobenzoic acid hydrochloride were then made in the necessary media. […] Biofilm inhibition was quantitated by measuring the OD540 of each well in which a negative control lane wherein no biofilm was formed served as a background and was subtracted out.

SMILES: Nc1nc2ccc(NC(=O)c3c(Cl)c(Cl)c(Cl)c(Cl)c3C(=O)O)cc2[nH]1 [Compound 3, 2-(2-amino-1H-benzo[d]imidazol-6-ylcarbamoyl)-3,4,5,6-tetrachlorobenzoic acid hydrochloride]
- IC50 [1]: 1.4 µM
- EC50 ([2]; Staphylococcus aureus): 2.92 µM
- EC50 ([2]; hydrochloride): 2.9 µM
- EC50 [3]: 74.8 µM
- EC50 ([3]; hydrochloride): 75 µM
- EC50 ([4]; Staphylococcus epidermidis): 7.25 µM
- EC50 ([4]; hydrochloride): 7.3 µM
- effect of Fe(II) on biofilm inhibitory activity [5]: not affected by increasing Fe(II) concentrations
- effect of Fe(II) on biofilm inhibitory activity ([5]; listed as 2-(2-amino-1H-benzo[d]imidazol-6-ylcarbamoyl)-3,4,5,6-tetrachlorobenzoic acid hy): no effect on biofilm inhibitory activity

From patent US9221765B2, “Inhibition and dispersion of bacterial biofilms with benzimidazole derivatives” (North Carolina State University, priority 2009, dated 2015)
